# Reference: patent US12319721B2 (Purdue Research Foundation, priority 2018, dated 2025)
# Where no end group is shown, it is not given here. [ ]: non-standard residue; d: D form. mp4 = 4 mini PEG linker
# Columns and labels:
# [1] = system: fracture callus of fractured femur; experiment: Femur fracture model, microCT of the fracture callus (BV/TV, BV, TbTh, TbSp); type: in vivo, Swiss Webster mice
# Text: All in vivo data included herein are from Swiss Webster mice. […] 1×concentration represents 1 nmol/day, 10× represents 10 nmol/day, 100×represents 100 nmol/day and most studies have an n of 5.
# The term “BV/TV” means the bone volume divided by total volume of the 100 thickest micro CT slices of the fracture callus.
# The term “TbTh” means the trabecular thickness of the 100 thickest micro CT slices of the fracture callus.
# The term “[…]” means the overall bone volume of the 100 thickest micro CT slices of the fracture callus.
# The term “TbSp” means the spacing between the trabecula in the 100 thickest micro CT slices of the fracture callus.
# The targeted conjugates were synthesized using standard Fmoc solid-phase peptide synthesis, as described above. To ensure the conjugates' activity, mouse pre osteo-blast (MCTC3-1) cells were treated with the targeted and untargeted compounds for three days at concentrations from 1 pM to 100 nM. After three days of treatment, the cells were harvested, and the ribonucleic acid (RNA) was purified from the cells. Expression levels of ALP, RUNx2, OSX, osteo-pontin (OPN), collagen 1A (Col-1A), OPG, RANKL, scle-rostin gene (SOST), and OC were quantified via quantitative reverse transcription polymerase chain reaction (RT-qPCR). Once the biological activity of the conjugates was confirmed, they were tested in vivo in a fracture model. Aseptic surgical techniques were used to place a 23-gage needle as in intramedullary nail in the femur of anesthetized, 12-week-old Swiss Webster mice for internal fixation before fracture. Femur fractures were induced using a drop weight fracture device from RISystem. The mice received buprenorphine for three days post fracture. […] Fracture healing was assessed using microCT (Scanco Medical Ag). Morphometric parameters were quantified in the 100 widest slices of the fracture callus. Trabecular thickness (TbTh), trabecular spacing (TbSp), total volume (TV), and volume of calcified callus (BV) were calculated. Fractured femurs were tested for strength in a four-point bend to failure using an Electro Force TestBench (TA Instruments). Lower supports were 10 mm apart on the anterior face of the femur in contact with the proximal and distal diaphysis. Upper supports were 4 mm apart and spanned the entire fracture callus on the diaphysis. Force was applied from the posterior face of the femur with a displacement rate of 0.3 mm/sec. Peak load, yield load, stiffness, displacement post yield, work to fracture, and deformation data were generated. Statistical analysis was performed using a two-way analysis of variance (ANOVA) and a Tukey post-hoc analysis with significance reported at the 95% confidence level. All animal experiments were performed in accordance with protocols approved by Purdue University's Institutional Animal Care and Use Committee (IACUC).
# healed fractured femur = experiment: Femur fracture model, postmortem four-point bend of the healed femur; type: in vivo, Swiss Webster mice
# Text: All in vivo data included herein are from Swiss Webster mice. All mice received an osteotomy on their right femur and received subcutaneous drug administration daily for either 2, 3 or 4 weeks, as indicated, for each compound. 1×concentration represents 1 nmol/day, 10× represents 10 nmol/day, 100×represents 100 nmol/day and most studies have an n of 5.
# The term “Peak Load” means a postmortem 4 point bend of the healed femur. Peak load represents the maximum force the healed femur withstood before it refractured.
# The targeted conjugates were synthesized using standard Fmoc solid-phase peptide synthesis, as described above. To ensure the conjugates' activity, mouse pre osteo-blast (MCTC3-1) cells were treated with the targeted and untargeted compounds for three days at concentrations from 1 pM to 100 nM. After three days of treatment, the cells were harvested, and the ribonucleic acid (RNA) was purified from the cells. Expression levels of ALP, RUNx2, OSX, osteo-pontin (OPN), collagen 1A (Col-1A), OPG, RANKL, scle-rostin gene (SOST), and OC were quantified via quantitative reverse transcription polymerase chain reaction (RT-qPCR). Once the biological activity of the conjugates was confirmed, they were tested in vivo in a fracture model. Aseptic surgical techniques were used to place a 23-gage needle as in intramedullary nail in the femur of anesthetized, 12-week-old Swiss Webster mice for internal fixation before fracture. Femur fractures were induced using a drop weight fracture device from RISystem. The mice received buprenorphine for three days post fracture. The mice were dosed subcutaneously each day for two weeks, three weeks, 4 weeks, or 17 days. Fracture healing was assessed using microCT (Scanco Medical Ag). Morphometric parameters were quantified in the 100 widest slices of the fracture callus. Trabecular thickness (TbTh), trabecular spacing (TbSp), total volume (TV), and volume of calcified callus (BV) were calculated. Fractured femurs were tested for strength in a four-point bend to failure using an Electro Force TestBench (TA Instruments). Lower supports were 10 mm apart on the anterior face of the femur in contact with the proximal and distal diaphysis. Upper supports were 4 mm apart and spanned the entire fracture callus on the diaphysis. Force was applied from the posterior face of the femur with a displacement rate of 0.3 mm/sec. Peak load, yield load, stiffness, displacement post yield, work to fracture, and deformation data were generated. Statistical analysis was performed using a two-way analysis of variance (ANOVA) and a Tukey post-hoc analysis with significance reported at the 95% confidence level. All animal experiments were performed in accordance with protocols approved by Purdue University's Institutional Animal Care and Use Committee (IACUC).
# [2] = 3 weeks, 0.1, 1 and 10 nmol daily subcutaneous
# [3] = 3 weeks, 0.1, 1 and 10 nmol daily subcutaneous, n=5
# [4] = 17 days, 1, 10 and 100 nmol daily subcutaneous, n=5
substance,measurement,setting,value
"JNK3_Mp4_(D)E10: 25-residue arrestin-3 peptide (JNK3) with mp4 linker and 10 glutamic acids, SEQ ID NO: 21, FIG. 49 (MGEKPGTRVFKKSSPNCKLTVYLGK; mp4 linker, 10 D-glutamic acids; SITE 25 C-term Lysine modified with 4 mini PEG linker-d(Glutamic acid)10 moiety)",BV/TV (bone density),[1]; [2],raises bone density
same,"BV (bone volume, bone mineralization)",[1]; [3],raises bone mineralization
same,Max load (bone strength),healed fractured femur; [3],raises bone strength
same,Work to fracture (bone strength),healed fractured femur; [3],raises bone strength
"Osteostatin_mp4_(D)E10: Osteostatin (PTHrP[107-139]) with 10 glutamic acids, SEQ ID NO: 23, FIG. 59",BV/TV (bone density),[1]; [2],raises bone density
same,"Tbth (trabecular thickness, bone quality)",[1]; [3],raises bone quality
same,Max load (bone strength),healed fractured femur; [3],raises bone strength
same,Stiffness,healed fractured femur; [3],raises bone stiffness
same,Work to fracture (bone strength),healed fractured femur; [3],raises bone strength
"QK_mp4_(D)E10: VEGF mimetic 15 amino acid peptide QK attached by mini-peg spacer to 10 glutamic acids, SEQ ID NO: 25 ({dE-dE-dE-dE-dE-dE-dE-dE-dE-dE-mp4}-KLTWQELYQLKYKGI)","BV (bone volume, bone mineralization)",[1]; [4],raises bone mineralization
same,BV/TV (bone density),[1]; [4],raises bone density
same,Max load (bone strength),healed fractured femur; [4],raises bone strength
same,Work to fracture (bone strength),healed fractured femur; [4],raises bone strength
"substance P D10: substance P with 4 mini PEG linker and conjugated with 10 aspartate acids, SEQ ID NO: 4/43, FIG. 32 (chain 1 {Asp-Asp-Asp-Asp-Asp-Asp-Asp-Asp-Asp-Asp-mp4}-RPKPQQFFGLM; chain 2 DDDDDDDDDD[mp4]RPKPQQFFGLM; ends and bridges not checked)",BV/TV,"[1]; 4 weeks, various concentrations (1, 10 and in part 100 nmol/day), subcutaneous daily",dose dependent manner
same,peak load (max load) of healed femur,"healed fractured femur; 4 weeks, 10× (10 nmol/day)",30-35 Newtons
